Data reported in US8785452B2, “Anti-infective compounds” (priority 2008, dated 2014).
Values after ≈ are worked out from the molar mass of the structure shown. Where two headings read alike, the source gives them in different places.

Tested on: M. tuberculosis H37Rv-GFP
Assay: microbe, parasite or virus in culture
Assay type: cell-based, Mycobacterium tuberculosis
Conditions: Mycobacterium tuberculosis, H37RV; for inhibition at 20 µM: Macrophage
[1] = confirmation, 20 uM, intracellular, read-out: QIM Confirm % Inhibition 20 uM
[2] = primary screen, 20 μM, intracellular, read-out: Primary QIM % Inhibition
[3] = read-out: Primary QIM % Inhibition
[4] = read-out: QIM Confirm % Inhibition 20 uM

O=[N+]([O-])c1ccc(O)c(-c2cc(C(F)(F)C(F)F)[nH]n2)c1 [IPK 000 164 52]
inhibition at 20 µM [1]: 80% | inhibition at 20 µM [2]: 64.7%

CCc1cccc(NC(=O)c2cccs2)c1 [IPK 000 257 61]
inhibition at 20 µM [1]: 79.9% | inhibition at 20 µM [2]: 71.5%

COc1ccc(/C=C2\c3ccccc3-c3ccc(C(=O)CCCCN4CCCCC4)cc32)cc1OC [IPK 000 198 54]
inhibition at 20 µM [1]: 77.9% | inhibition at 20 µM [2]: 38.6%

C/C(=N\NC(=O)COc1cccc(Br)c1)c1ccccn1 [IPK 000 157 55]
inhibition at 20 µM [1]: 19.9% | inhibition at 20 µM [2]: 22%

O=C(COc1ccc(-c2ccccc2)cc1)Nc1nc2ccccc2s1 [IPK 000 142 17]
inhibition at 20 µM [3]: 84.3% | inhibition at 20 µM [4]: 82.3%

C/C(=C\c1ccc2c(c1)OCO2)[N+](=O)[O-] [IPK 000 240 37]
inhibition at 20 µM [3]: 17% | inhibition at 20 µM [4]: 67.5%

O=C(NCCC1=CCCCC1)C(=O)Nc1cccc(F)c1 [IPK 000 133 46]
inhibition at 20 µM [1]: 94.4% | inhibition at 20 µM [2]: 69.6%

NNC(=O)c1ccc(COc2ccc(Cl)cc2Cl)o1 [IPK 000 140 81]
inhibition at 20 µM [1]: 91.8% | inhibition at 20 µM [2]: 94.6%

C/C(=N/NC(=O)c1cc2ccccc2cc1O)c1ccc(O)cc1 [IPK 000 180 11]
inhibition at 20 µM [1]: 69.7% | inhibition at 20 µM [2]: 68.2%

CO[C@H]1/C=C/O[C@@]2(C)Oc3c(C)c(O)c4c(O)c(c(/C=N/N5CCN(C)CC5)c(O)c4c3C2=O)NC(=O)/C(C)=C\C=C\[C@H](C)[C@H](O)[C@@H](C)[C@@H](O)[C@@H](C)[C@H](OC(C)=O)[C@@H]1C [rifampin, reference compound]
MIC (120 h, read-out: minimal inhibitory concentration (MIC)): 2.4 µg/mL (≈ 2.92 µM)

O=[N+]([O-])c1cc(-c2nnc(-c3ccccc3)o2)cc([N+](=O)[O-])c1 [IPK 000 150 85]
inhibition at 20 µM [3]: 72.3% | inhibition at 20 µM [4]: 72.2%

CC1=NN(C(N)=S)C(=O)/C1=N/Nc1ccc(C)cc1 [IPK 000 168 31]
inhibition at 20 µM [1]: 78.1% | inhibition at 20 µM [2]: 83.9%

O=C(Nc1ccc(Cl)cc1)Nc1ccc(C(F)(F)F)cc1 [IPK 000 146 98]
inhibition at 20 µM [1]: 26.5% | inhibition at 20 µM [2]: 55.8%

Cc1ccc(/C=N/NC(=O)c2ccncc2)o1 [IPK 000 219 26]
inhibition at 20 µM [1]: 51.4% | inhibition at 20 µM [2]: 91.1%

C/C(=N\NC(=S)Nc1cccc(C)c1)c1ccco1 [IPK 000 173 45]
inhibition at 20 µM [1]: 19.2% | inhibition at 20 µM [2]: 14.9%

NNC(=O)c1ccc(COc2ccc(Cl)cc2)o1 [IPK 000 140 87]
inhibition at 20 µM [1]: 91.1% | inhibition at 20 µM [2]: 92.2%

NNC(=O)CSc1nc2ccccc2s1 [IPK 000 160 45]
inhibition at 20 µM [1]: 70.7% | inhibition at 20 µM [2]: 66%

O=C(CSC1=NCCS1)Nc1ccc(Br)cc1F [IPK 000 150 41]
inhibition at 20 µM [1]: 83.3% | inhibition at 20 µM [2]: 78.3%

CSc1ccc(/C=N/Nc2nc(-c3ccc(NC(C)=O)cc3)cs2)cc1 [IPK 000 163 67]
inhibition at 20 µM [1]: 99.5% | inhibition at 20 µM [2]: 68.1%

O=C(CCc1ccccc1)N1CCN(Cc2ccccc2)CC1 [IPK 000 126 73]
inhibition at 20 µM [1]: 60.8% | inhibition at 20 µM [2]: 85.7%

CCOC(=O)C1=C(COc2ccc(F)cc2)NC(=O)NC1c1ccc2c(c1)OCO2 (stereo not drawn) [IPK 000 251 80]
inhibition at 20 µM [1]: 38.2% | inhibition at 20 µM [2]: 25.5%

O=C(c1ccc([N+](=O)[O-])o1)N1CCN(Cc2ccccc2)CC1 [IPK 000 135 28]
inhibition at 20 µM [1]: 26.6% | inhibition at 20 µM [2]: 53.3%

CCCCNC(=O)c1cc([N+](=O)[O-])cc([N+](=O)[O-])c1 [IPK 000 046 87]
inhibition at 20 µM [3]: 74.4% | inhibition at 20 µM [4]: 56.3%

Cc1ccsc1/C=C1/SC(N2CCCCC2)=NC1=O [IPK 000 129 72]
inhibition at 20 µM [1]: 75.4% | inhibition at 20 µM [2]: 61.8%

CCCCOC(=O)c1cc([N+](=O)[O-])c(Sc2nc3ccccc3[nH]2)c([N+](=O)[O-])c1 [IPK 000 141 58]
inhibition at 20 µM [3]: 58.2% | inhibition at 20 µM [4]: 59.2%

Cc1ccc(C)n1-c1ccc(C(=O)O)c(O)c1 [IPK 000 200 47]
inhibition at 20 µM [1]: 19.1% | inhibition at 20 µM [2]: 6.3%

CC(C)(C)c1ccc(C(=O)NC2CCCCCCC2)cc1 [IPK 000 248 71]
inhibition at 20 µM [1]: 79% | inhibition at 20 µM [2]: 79.5%

CCN(CC)c1ccc(/C=N/NC(=O)c2ccncc2)cc1 [IPK 000 195 99]
inhibition at 20 µM [1]: 69.5% | inhibition at 20 µM [2]: 79.1%

O=C(O)c1cccc2c1NC(c1ccccc1[N+](=O)[O-])C1Cc3ccccc3C21 (stereo not drawn) [IPK 000 241 72]
inhibition at 20 µM [1]: 28% | inhibition at 20 µM [2]: -43.3%

O=C(NCCc1ccccc1)c1ccc([N+](=O)[O-])o1 [IPK 000 235 09]
inhibition at 20 µM [1]: 36.4% | inhibition at 20 µM [2]: 46.2%

O=C(COc1cccc(Cl)c1)N/N=C/c1ccc([N+](=O)[O-])o1 [IPK 000 147 98]
inhibition at 20 µM [1]: 72.3% | inhibition at 20 µM [2]: 6.3%

Cc1ccc(C(=O)NCCSC2CCCCC2)cc1[N+](=O)[O-] [IPK 000 229 50]
inhibition at 20 µM [1]: 83.6% | inhibition at 20 µM [2]: 60.1%

C/C(=N\NC(=S)Nc1cccc(C)c1)c1ccccc1O [IPK 000 173 06]
inhibition at 20 µM [1]: 15.8% | inhibition at 20 µM [2]: 44%

O=C(Nc1ccc(C(F)(F)F)cc1)Nc1cccc(F)c1 [IPK 000 146 91]
inhibition at 20 µM [1]: 70% | inhibition at 20 µM [2]: 57%

Oc1ccccc1/N=C/c1ccc(OCc2ccccc2)cc1 [IPK 000 169 86]
inhibition at 20 µM [1]: 13% | inhibition at 20 µM [2]: 0.5%

O=c1[nH]cc(Sc2cccc3cccnc23)c(=O)[nH]1 [IPK 000 149 02]
inhibition at 20 µM [1]: 19.1% | inhibition at 20 µM [2]: 23.5%

NC(=O)c1ccccc1/N=C/c1ccc([N+](=O)[O-])o1 [IPK 000 175 27]
inhibition at 20 µM [1]: 25.8% | inhibition at 20 µM [2]: -69.7%

Cc1ccc(CNC(=O)c2ccc(F)cc2)cc1 [IPK 000 205 42]
inhibition at 20 µM [1]: 69.3% | inhibition at 20 µM [2]: 71.5%

Cc1ccn2cc(-c3ccc(F)cc3)nc2c1 [IPK 000 129 91]
inhibition at 20 µM [1]: 38.2% | inhibition at 20 µM [2]: -36%

CC(C)(C)c1ccc(O)c(C(=O)Oc2ccccc2)c1 [IPK 000 143 45]
inhibition at 20 µM [1]: 83.5% | inhibition at 20 µM [2]: 81.2%

CC(C)c1ccc(OCC(=O)N/N=C\c2ccccc2OCC(=O)O)cc1 [IPK 000 138 43]
inhibition at 20 µM [1]: 78.9% | inhibition at 20 µM [2]: 76.3%

COc1ccc(/C=N/NC(=O)c2ccncc2)cc1 [IPK 000 219 28]
inhibition at 20 µM [1]: 46.2% | inhibition at 20 µM [2]: 106%

O=C(COc1ccc(F)cc1)N/N=C/c1ccc([N+](=O)[O-])o1 [IPK 000 148 04]
inhibition at 20 µM [1]: 59.3% | inhibition at 20 µM [2]: 21.8%

C/C(Cn1nnc([N+](=O)[O-])n1)=N\Nc1c(Cl)cc(Cl)cc1Cl [IPK 000 150 48]
inhibition at 20 µM [1]: 16.1% | inhibition at 20 µM [2]: -96.3%

CC1=NN(C(N)=S)C(=O)/C1=N/Nc1ccccc1C [IPK 000 168 32]
inhibition at 20 µM [1]: 81.9% | inhibition at 20 µM [2]: 75.7%

CS(=O)(=O)c1nnnn1-c1ccccc1 [IPK 000 244 12]
inhibition at 20 µM [1]: 11.8% | inhibition at 20 µM [2]: 29.9%

O=C(/C=C/c1ccccc1F)c1ccc(Cl)cc1 [IPK 000 172 35]
inhibition at 20 µM [1]: 59.9% | inhibition at 20 µM [2]: 0.9%

CC/C(=N/Nc1nc(-c2ccc(NC(C)=O)cc2)cs1)c1ccccc1 [IPK 000 163 64]
inhibition at 20 µM [1]: 74.2% | inhibition at 20 µM [2]: 74.9%

CCOC(=O)c1sc(NC(=O)CCCc2ccccc2)nc1C [IPK 000 254 25]
inhibition at 20 µM [1]: 18.5% | inhibition at 20 µM [2]: 32.5%

COc1ccc(-c2csc(-c3cccnc3)n2)cc1 [IPK 000 144 22]
inhibition at 20 µM [1]: 30% | inhibition at 20 µM [2]: -9.8%

CCOC(=O)c1sc(NC(=O)CCC2CCCCC2)nc1C [IPK 000 255 46]
inhibition at 20 µM [1]: 53.1% | inhibition at 20 µM [2]: 25%

O=C(Nc1ccc(F)cc1)Nc1ccc(C(F)(F)F)cc1 [IPK 000 147 17]
inhibition at 20 µM [1]: 40.8% | inhibition at 20 µM [2]: 11.9%

O=C(NNC(=O)c1cc([N+](=O)[O-])cc([N+](=O)[O-])c1)c1ccc(COc2ccc3c(c2)CCC3)cc1 [IPK 000 149 44]
inhibition at 20 µM [3]: 57.6% | inhibition at 20 µM [4]: 47.1%

CCOc1ccc(NCC(=O)n2nc(C)cc2C)cc1 [IPK 000 234 61]
inhibition at 20 µM [1]: -1.6% | inhibition at 20 µM [2]: -61%

ON=C(/C=C/c1ccccc1)/C=C/c1ccccc1 [IPK 000 168 10]
inhibition at 20 µM [1]: 65.6% | inhibition at 20 µM [2]: 38%

COc1ccc(/C=N/Nc2nc(-c3ccccc3)cs2)cc1 [IPK 000 163 62]
inhibition at 20 µM [1]: 107% | inhibition at 20 µM [2]: 81.3%

O=C(Nc1nccs1)c1ccc(COc2ccc(F)cc2)o1 [IPK 000 141 08]
inhibition at 20 µM [1]: 84% | inhibition at 20 µM [2]: 67.5%

Cc1ccc2nc(-c3ccc(NC(=O)CN4CCCC4)cc3)sc2c1 [IPK 000 125 61]
inhibition at 20 µM [1]: 85.8% | inhibition at 20 µM [2]: 44.1%

O=C(Nc1ccc(C(F)(F)F)cc1)Nc1cccc(Cl)c1 [IPK 000 147 54]
inhibition at 20 µM [1]: 10.1% | inhibition at 20 µM [2]: -10.9%

O=C(COc1ccc(F)cc1)Nc1nccs1 [IPK 000 247 44]
inhibition at 20 µM [1]: 97.1% | inhibition at 20 µM [2]: 89.1%

CC(=O)COc1c([N+](=O)[O-])ccc(F)c1F [IPK 000 259 78]
inhibition at 20 µM [1]: 58.8% | inhibition at 20 µM [2]: 4.9%

OC1CCCc2c1[nH]c1ccc(Br)cc21 (stereo not drawn) [IPK 000 180 76]
inhibition at 20 µM [1]: 92.1% | inhibition at 20 µM [2]: 70.6%

CCOc1ccc(C(=O)NCCC(C)C)cc1 [IPK 000 210 83]
inhibition at 20 µM [1]: 48.2% | inhibition at 20 µM [2]: 70.4%

Cc1cc(C)nc(NC(=N)Nc2ccc(OCc3ccc(Cl)cc3)cc2)n1 [IPK 000 163 93]
inhibition at 20 µM [1]: 89.9% | inhibition at 20 µM [2]: 66.7%

O=C(Nc1cccc(C(F)(F)F)c1)c1cccs1 [IPK 000 202 08]
inhibition at 20 µM [1]: 67.4% | inhibition at 20 µM [2]: 65.7%

O=C(c1ccc([N+](=O)[O-])o1)N1CCCc2ccccc21 [IPK 000 161 32]
inhibition at 20 µM [1]: 17.8% | inhibition at 20 µM [2]: -37.9%

CCOc1ccc(NCCCCO)cc1 [IPK 000 172 54]
inhibition at 20 µM [1]: 40.4% | inhibition at 20 µM [2]: 4.1%

CS(=O)(=O)c1nc(-c2ccc(Cl)cc2)n[nH]1 [IPK 000 134 63]
inhibition at 20 µM [1]: 12.6% | inhibition at 20 µM [2]: -18.3%
